Source: US20160271248A1, “CXCR4 UP- AND DOWN-REGULATION FOR TREATMENT OF DISEASES OR DISORDERS” (priority 2013, published 2016)
Like-named read-outs stand apart in the source and are kept apart here.

How the values were obtained:
Rat cortical neurons = assay type: cell-based; conditions: for effect on CXCL12-induced increase of spine density: AMD3100 100 ng/ml 20 min or PTx 100 ng/ml 18 hrs before CXCL12 (20 nM, 3 hours)
Description: (§1) Rat cortical neurons were cultured in the presence of a glial feeder layer, using the bilaminar cell culture model. Due to the presence of glia this culture system largely preserves the in vivo mechanisms of neuronal growth and differentiation, but also allows for direct studies on neurons, which were separated from glia at the time of analysis. Selected experiments were performed using glia-free neuronal cultures, as noted, using previously described protocols (Sengupta et al., 2009, J. Neurosci. 29:2534-2544). Neurons were transfected at the time of plating by Nucleofection (Amaxa), or after 8 days in culture by lipofectamine (Invitrogen). All experiments were conducted at 21 DIV, unless otherwise noted. HDAC4 and control (scrambled) siRNA were obtained from Ambion (s170677 and 4390843), and FHC/scrambled shRNA from GenScript (custom order; shRNA vector also expressed GFP).
For in vitro experiments, neurons were cultured in the presence of glia for 21 days, then fixed and stained for MAP2 (Millipore, 1:1000; detected with Goat antirabbit Alexa 568, Invitrogen 1:250) and counterstained with phalloidin (Invitrogen, 25 μg/mL). For FHC shRNA experiments neurons were identified and analyzed using incorporated GFP expression. Images were acquired with a Zeiss LSM5 laser scanning confocal microscope, using a 63× objective. Dendritic spines were defined as phalloidin- or GFP-positive protrusions clearly connected to the dendrite by a thin shaft. For each neuron 3-4 segments totaling at least […] in length were added to measure spine density, and each neuron was represented as a single data point. Each experiment included 3-4 coverslips from each of 2 or more separate preparations. For in vivo experiments, dendritic spines were visualized using a Golgi stain kit, following instructions from the manufacturer (FD NeuroTechnologies). Brains were rapidly removed, rinsed in H2O, and incubated in the Golgi stain for 2 weeks. The tissue was then cryoprotected in sucrose at 4° C. for 7 days, and frozen in isopentane. Brains were sectioned by cryostat at a thickness of 180 μm, and mounted on gelatin-coated microscope slides. Sections were allowed to dry overnight, and a signal intensification step performed before dehydrating, clearing in xylene, and coversliping with Permount (Fisher Scientific). Spine analysis was performed using Neurolucida software equipped with a 100× objective (FIG. 7A). Pyramidal neurons in layer 2-3 of prefrontal cortex were identified and reconstructed in their entirety, and total spine density for each neuron was reported as a single data point. 3 neurons were analyzed from each brain, and 4-5 brains used for each experimental group.

FHC [1] = assay: Neuronal FHC protein levels by Western blot in cultured cortical neurons; assay type: cell-based, rat; conditions: for FHC protein levels: neurons in the absence of glia, 0.5 to 30 ng/mL, vs vehicle
Description: as §1
(§2) Protease and phosphatases inhibitors were added to both buffers.
Rat cortical neurons were cultured in serum-free media in the presence of a glial feeder layer (Shimizu, et al., 2011, J. Vis. Exp. 57). This culture system largely preserves the in vivo environment, due to the presence of glia; however, it still enables direct investigation of neurons that can be separated by the glia before experiments. Selected studies were also performed in neurons grown in the absence of glia for the entire culture period, as indicated (Sengupta, et al., 2009, J. Neurosci. 29(8):2534-44). All experiments were conducted between 8-13 days in vitro (DIV).
Total protein extracts were obtained using standard protocols. […] The following antibodies were used: anti-FHC (3998, Cell Signaling Technology, 1:1,000) and anti-β-actin (A2066, Sigma-Aldrich, 1:5,000).

FHC [2] = assay: Multispectral imaging of FHC optical density within MAP2+ neurons, non-human primate; assay type: in vivo, rhesus macaque; conditions: morphine 3 then 5 mg/kg 3 times daily, 90-110 days; frontal cortex
pCXCR4-Ser339 = assay: Multispectral imaging of pCXCR4 optical density within MAP2+ neurons, non-human primate; assay type: in vivo, rhesus macaque; conditions: morphine treated macaques; frontal cortex
CXCR4 = assay: Multispectral imaging of total CXCR4 optical density within MAP2+ neurons, non-human primate; assay type: in vivo, rhesus macaque; conditions: morphine treated macaques; frontal cortex
HOS cells = assay: Calcein assay (labile iron pool); assay type: cell-based, human; conditions: DFO 100 µM, six hours; empty vector HOS cells
Description: HOS cells transfected with either empty vector (EV), wild type FHC (WT-FHC) or FHC 222 mutant (Mut-FHC) were plated in 96-well plates at 20,000 cells per well. After 24 hours of serum starvation, vehicle or the iron chelator DFO ([…]) were added, respectively, to the untreated EV wells (Control) and to the positive control wells (DFO). Six hours later all cells were washed with PBS, and loaded with the iron-binding dye calcein (200 μg/mL) for 20 minutes. Cells were then washed again in PBS, and calcein fluorescence measured (excitation 485 nm, emission 535 nm), as a measure of the labile iron pool.
Human osteosarcoma cells expressing high levels of CXCR4 (HOS-X4) were transfected with either of these FHC plasmids and selected to generate stable cell lines. First, in order to confirm the differential effects of these proteins on iron sequestration, free intracellular iron levels were compared using the fluorescent probe calcein. Calcein is delivered as a calcein-AM ester, which passes across the plasma membrane into cells and is cleaved by cytosolic esterases to produce membrane-impermeable calcein. The fluorescence of this trapped calcein is quenched following chelation with labile iron, and therefore the degree of quenching is a commonly used estimation of free intracellular iron levels.

[3] = test system: layer 2/3 pyramidal neurons in the prefrontal cortex; assay type: cell-based, rat
[4] = test system: layer II/III pyramidal neurons of the prefrontal cortex; assay: In vivo dendritic spine analysis (Golgi stain, Neurolucida); parameters: species or system rat
HDAC4 = assay: Nuclear HDAC4 levels by immunocytochemistry and western blot; assay type: cell-based, rat; conditions: pure neuronal culture; CXCL12 20 nM, 30 min
Description: as §2
Neurons were fixed in 4% paraformaldehyde, and stained with MAP2 (Millipore, 1:1000) and HDAC4 (Epigentek, 1:150), detected with cy2- and cy3-conjugated secondary antibodies. Cell nuclei were visualized with Hoechst (Invitrogen, 1:2000), and images were acquired with a Zeiss LSM5 laser scanning confocal microscope (Imager.Z1m), mounting 10, 20, 40, and 63× objectives.

FHC [5] = assay: FHC transcript levels in neurons; assay type: cell-based, rat; conditions: neurons in the absence of glia
[6] = AMD3100 1 μg ICV, 6 hours, CXCL12 20 nM, 3 hours slice incubation
[7] = held at −70 mV, picrotoxin, AMD3100 ICV or CXCL12 20 nM 3 hrs

CN1CC[C@]23c4c5ccc(O)c4O[C@H]2[C@@H](O)C=C[C@H]3[C@H]1C5 [morphine]
ability of morphine to regulate spines in FHC-deficient neurons (Rat cortical neurons; FHC-specific shRNA vs scrambled): blocked
number of dendritic spines (Rat cortical neurons; morphine 1 μm, 24 hours, 21 days culture): significant decrease in the number of dendritic spines
FHC levels (FHC [1]; cultured rat cortical neurons, morphine 1 μm, 24 hours): significantly increases FHC levels
neuronal FHC (OD within MAP2+ neurons) (FHC [2]): significantly elevated
neuronal pCXCR4 levels (pCXCR4-Ser339): significant reduction in pCXCR4 levels
total neuronal CXCR4 levels (CXCR4): unchanged

CC(=O)N(O)CCCCCNC(=O)CCC(=O)N(O)CCCCCNC(=O)CCC(=O)N(O)CCCCCN [DFO, desferrioxamine]
calcein fluorescence (HOS cells): increased

c1cc(CN2CCCNCCNCCCNCC2)ccc1CN1CCCNCCNCCCNCC1 [AMD3100, 1,1′-[1,4-phenylenebis (methylene)]bis[1,4,8,11-tetraazacyclotetradecane], reference compound]
20-80% rise time [3]: 0.31 ± 0.02 ms
after hyperpolarization [3]: −12.8 ± 1.5 mV
mEPSC amplitude [3]: 16.55±0.55 pA
mEPSC frequency [3]: 2.27±0.33 Hz
peak spike amplitude [3]: 72.6 ± 5.3 mV
resting membrane potential [3]: −76.9 ± 2.3 mV
spike half-width [3]: 1.3 ± 0.12 ms
spike number generation in response to varying step currents [3]: no drug effect on spike number generation
spike threshold [3]: −38.4 ± 3.0 mV
input resistance [3, 6]: 138.3 ± 9.5 M′Ω
sEPSC amplitude [3, 7]: 16.79±0.80 pA
sEPSC frequency [3, 7]: 3.84±0.65 Hz
effect on CXCL12-induced increase of spine density (Rat cortical neurons): blocked
dendritic spine density ([4]; osmotic pump into left lateral ventricle, 0.75 μg/hour for 4 days): similarly able to decrease dendritic spine densities
dendritic spine density ([4]; single 1 μg ICV injection, 3-week-old rats, 6 hours post-injection): significantly decreased spine densities

pertussis toxin
effect on CXCL12-induced increase of spine density (Rat cortical neurons): blocked

CXCL12: recombinant chemokine CXCL12 from Peprotech, endogenous CXCR4 ligand
mEPSC amplitude [3]: 25.25±1.02 pA
mEPSC frequency [3]: 1.43±0.25 Hz
resting membrane potential [3]: −76.1 ± 2.3 mV
sEPSC amplitude [3]: 25.32±0.43 pA
sEPSC frequency [3]: 1.85±0.41 Hz
20-80% rise time [3, 6]: 0.29 ± 0.01 ms
after hyperpolarization [3, 6]: −12.0 ± 0.9 mV
input resistance [3, 6]: 121.8 ± 13.2 M′Ω
peak spike amplitude [3, 6]: 74.0 ± 2.8 mV
spike half-width [3, 6]: 1.2 ± 0.07 ms
spike threshold [3, 6]: −42.9 ± 2.3 mV
spike number generation in response to varying step currents ([3]; current clamp, AMD3100 ICV or CXCL12 ex vivo vs vehicle): no drug effect on spike number generation
dendritic spine density (Rat cortical neurons; 21 days culture with glial feeder layer, CXCL12 20 nM, 3 hours): moderate but significant increase in spine density
effects of CXCL12 on spine density in HDAC4-deficient neurons (Rat cortical neurons; HDAC4-specific siRNA, pure neuronal population): completely prevented
dendritic spines (Rat cortical neurons; pure neuronal population, 21 days, 20 nM CXCL12, multiple time points): time-dependent increase in dendritic spines
nuclear HDAC4 levels (HDAC4): increased nuclear HDAC4 levels

TNF-α
FHC protein levels (FHC [1]): significant increase of FHC protein levels
FHC transcript levels (FHC [5]): increased

IL-1β: Recombinant IL-1β, proinflammatory cytokine, R&D Systems
FHC protein levels (FHC [1]): significant increase of FHC protein levels
FHC transcript levels (FHC [5]): did not affect levels of FHC mRNA
